pEC50: −log10 of the molar value. Where two headings read alike, the source gives them in different places.
Columns and labels:
HCoV-OC43 = experiment: Antiviral cytopathicity assay, HCoV-OC43 in HEL 299 cells; format: cell-based
[1] = test system: respiratory syncytial virus (RSV) strain A Long; experiment: microbe, parasite or virus in culture; format: cell-based; conditions: human respiratory syncytial virus, HEL 299, read-out: EC50 (μM) RSV A Long, HEL 299
[2] = test system: yellow fever virus (YFV) strain 17 D; experiment: microbe, parasite or virus in culture; format: cell-based; conditions: Yellow fever virus, Huh-7, read-out: EC50 (μM) YFV 17D, Huh7
a variety of RNA viruses = format: cell-based
[3] = test system: HEL299, Huh 7 and MDCK cells
in vitro [4] = conditions: human
in vitro [5] = conditions: human; remark: listed apart in the source
in vitro [6] = conditions: dog
[7] = test system: varicella-zoster virus (VZV) strain TK−; experiment: microbe, parasite or virus in culture; format: cell-based; conditions: Human alphaherpesvirus 3, HEL, read-out: EC50, formation of viral plaques, TK-varicella-zoster virus strain
[8] = test system: human cytomegalovirus (HCMV) strain AD-169; experiment: microbe, parasite or virus in culture; format: cell-based; conditions: Human betaherpesvirus 5, AD169, HEL, read-out: EC50, formation of viral plaques, cytomegalovirus strain AD169
[9] = test system: human cytomegalovirus (HCMV) strain Davis; experiment: microbe, parasite or virus in culture; format: cell-based; conditions: Human betaherpesvirus 5, HEL, read-out: EC50, formation of viral plaques, cytomegalovirus strain Davis
HEL cells = experiment: Change of cell morphology in HEL cells; format: cell-based, human
[10] = Betacoronavirus 1, OC43, HEL 299, read-out: EC50 (μM) HCoV-OC43, HEL 299

| Structure (SMILES) | EC50 (HCoV-OC43; [10]) | EC50 [1] | EC50 [2] | antiviral activity in the screening (in words) (a variety of RNA viruses) | cytotoxicity in the tested cell lines (in words) [3] | CC50 (in vitro [4]) | CC50 (in vitro [5]) | CC50 (in vitro [6]) | EC50 (HCoV-OC43; Betacoronavirus 1, OC43, HEL 299 cells, reduction of virus-induced cytopathicity by 50%, read-out: EC50 (μM) HCoV-OC43, HEL 299) | pEC50 [7] | pEC50 [8] | pEC50 [9] | minimum concentration that leads to the detection of changes in cell morphology (HEL cells) |
| --- | --- | --- | --- | --- | --- | --- | --- | --- | --- | --- | --- | --- | --- |
| CC(C)(C)c1ccc(Nc2cn(C3C=CC(O)C3)c(=O)[nH]c2=O)cc1 (racemic) [(±)-3e, (±)-1-(4′-Hydroxycyclopent-2′-en-1′-yl)-5-((4″-tert-butyl)phenylamino)uracil] | > 100 µM | > 100 µM | > 100 µM | did not show any activity | marked cytotoxicity | > 100 µM | > 100 µM | 63 µM | – | – | – | – | – |
| CC(C)(C)c1ccc(Nc2cn(C3C=CC(O)C3)c(=O)n(C3C=CC(O)C3)c2=O)cc1 (racemic) [(±)-4e, (±)-1-(1-(4′-hydroxycyclopent-2′-ene-1′-yl))-3-(4‴-hydroxycyclopent-2‴-en-1‴-yl)-5-((4″-tert-butyl)phenylamino)uracil] | – | > 100 µM | > 100 µM | did not show any activity | marked cytotoxicity | – | – | 19.5 µM | > 100 µM | 4.31 | 4.12 | 4.39 | greater than 100 μM |
| O=c1c(Oc2ccc(Cl)cc2)cn(C2C=CC(O)C2)c(=O)n1C1C=CC(O)C1 (racemic) [(±)-11c, (±)-1-(4′-hydroxycyclopent-2′-en-1′-yl)-3-(4‴-hydroxycyclopent-2‴-en-1‴-yl)-5-(4″-chlorophenoxy)uracil] | > 100 µM | > 100 µM | > 100 µM | did not show any activity | marked cytotoxicity | > 100 µM | > 100 µM | 47.4 µM | – | – | – | – | – |
